Assay results reported in ChEMBL document CHEMBL5131522, “3-Pyrrolidine-indole Derivatives as 5-HT2-Selective Receptor Modulators for the Potential Treatment of Mental Disorders” (ACS Med Chem Lett, 2022).
pEC50: −log10 of the molar value.

biological target: 5-hydroxytryptamine receptor 2A (Homo sapiens, UniProt P28223); assay: Agonist activity at human 5-HT2A receptor expressed in cells assessed as increase in calcium mobilization by Calcium-6 dye based FLIPR assay; assay type: functional, cell-based
Sequence (P28223 whole entry): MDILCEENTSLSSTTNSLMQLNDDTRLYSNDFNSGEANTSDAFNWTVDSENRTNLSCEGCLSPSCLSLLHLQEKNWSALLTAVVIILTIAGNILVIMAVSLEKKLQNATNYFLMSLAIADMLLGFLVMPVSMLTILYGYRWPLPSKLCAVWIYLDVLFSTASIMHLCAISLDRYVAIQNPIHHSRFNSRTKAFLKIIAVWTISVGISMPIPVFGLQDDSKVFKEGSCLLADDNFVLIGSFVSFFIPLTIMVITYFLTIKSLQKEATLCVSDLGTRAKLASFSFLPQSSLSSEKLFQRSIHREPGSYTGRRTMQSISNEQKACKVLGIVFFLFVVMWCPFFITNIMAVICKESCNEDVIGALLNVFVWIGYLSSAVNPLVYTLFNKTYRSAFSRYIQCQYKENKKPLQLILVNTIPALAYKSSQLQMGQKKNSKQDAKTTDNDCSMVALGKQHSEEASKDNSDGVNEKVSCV

`Oc1cccc2[nH]cc(C[C@H]3CCCN3)c12` and `[2H]C([2H])(c1c[nH]c2cccc(O)c12)[C@@H]1CCCN1` cannot be ordered by pEC50: > 6.00 for the first, > 6.00 for the second.

`[2H]C([2H])(c1c[nH]c2cccc(OC)c12)[C@H]1CCCN1C([2H])([2H])[2H]` and `[2H]C([2H])(c1c[nH]c2cccc(O)c12)[C@H]1CCCN1C([2H])([2H])[2H]` cannot be ordered by pEC50: > 6.00 for the first, > 6.00 for the second.

Going from `[2H]C([2H])(c1c[nH]c2cccc(F)c12)[C@H]1CCCN1` to `[2H]C([2H])(c1c[nH]c2cccc(F)c12)[C@H]1CCCN1C([2H])([2H])[2H]`, the pEC50 rises from 6.00 to > 6.00.

`[2H]C([2H])([2H])N1CCC[C@H]1Cc1c[nH]c2cccc(OCc3ccccc3)c12` and `[2H]C([2H])([2H])N1CCC[C@@H]1Cc1c[nH]c2cccc(O)c12` cannot be ordered by pEC50: > 5.00 for the first, > 6.00 for the second.

`[2H]C([2H])([2H])N1CCC[C@@H]1Cc1c[nH]c2cccc(F)c12` and `CN1CCC[C@@H]1Cc1c[nH]c2cccc(O)c12` cannot be ordered by pEC50: > 6.00 for the first, > 6.00 for the second.
